Results from PubChem BioAssay AID330 (DTP/NCI, 2004).
Where “and” joins values, the source holds several entries; their conditions need not be identical. Identical values can stand only once. Toxic doses and inconclusive results are not listed. How the source made its calls: active means survival T/C of 150% or more; inactive means T/C below 125% in these data.

Tested on: P388 leukemia ip, CD2F1 mice, survival T/C
Assay: NCI In Vivo Anticancer Drug Screen. Data for tumor model P388 Leukemia (intraperitoneal) in CD2F1 (CDF1) mice
Conditions: endpoint: median survival time, higher = longer survival
How it was run: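 Mice carrying the transplanted tumor received test compound or vehicle. Survival was recorded in each group, and the value is the treated-group measurement divided by that of the vehicle-treated control group.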

[1] = dose: 50.0 mg/kg/injection, schedule: Q01DX009 (ip), vehicle: saline with Tween-80
[2] = dose: 100.0 mg/kg/injection, schedule: Q01DX009 (ip), vehicle: saline with Tween-80
[3] = dose: 200.0 mg/kg/injection, schedule: Q01DX009 (ip), vehicle: saline with Tween-80
[4] = dose: 12.5 mg/kg/injection, schedule: Q01DX009 (ip), vehicle: saline with Tween-80
[5] = dose: 25.0 mg/kg/injection, schedule: Q01DX009 (ip), vehicle: saline with Tween-80
[6] = dose: 50.0 mg/kg/injection, schedule: Q01DX005 (ip), vehicle: saline
[7] = dose: 100.0 mg/kg/injection, schedule: Q01DX005 (ip), vehicle: saline
[8] = dose: 200.0 mg/kg/injection, schedule: Q01DX005 (ip), vehicle: saline

Measured: T/C

CC(=O)N1CC(=O)NC1=S
inactive: [1] 106 % of control | [2] 97 % of control | [3] 103 % of control and 95 % of control | dose: 400.0 mg/kg/injection, schedule: Q01DX009 (ip), vehicle: saline with Tween-80 104 % of control

Cc1ccc([NH-])c(C(=O)O)c1.Cc1ccc([NH-])c(C(=O)O)c1.[Cu+2]
inactive: dose: 12.5 mg/kg/injection, schedule: Q01DX005 (ip), vehicle: saline with Tween-80 96 % of control | dose: 25.0 mg/kg/injection, schedule: Q01DX005 (ip), vehicle: saline with Tween-80 100 % of control | dose: 50.0 mg/kg/injection, schedule: Q01DX005 (ip), vehicle: saline with Tween-80 94 % of control

COc1ccc(OC)c(N2C(=O)C=C(C)C2(O)CC#N)c1 (configuration not stated)
inactive: dose: 6.25 mg/kg/injection, schedule: Q01DX009 (ip), vehicle: saline with Tween-80 100 % of control | [4] 95 % of control | [5] 98 % of control | [1] 98 % of control

C[n+]1cccc2c1-c1c(ccc[n+]1C)C2
inactive: [6] 108 % of control | [7] 105 % of control | [8] 104 % of control

CN(C)CC(CN(C)C)C(=O)c1ccc2c(c1)OCO2
inactive: dose: 15.0 mg/kg/injection, schedule: Q01DX005 (ip), vehicle: saline 122 % of control | dose: 30.0 mg/kg/injection, schedule: Q01DX005 (ip), vehicle: saline 117 % of control | dose: 60.0 mg/kg/injection, schedule: Q01DX005 (ip), vehicle: saline 119 % of control

[Tl][S][Tl]
inactive: dose: 6.25 mg/kg/injection, schedule: Q01DX009 (ip), vehicle: Klucel (hydroxypropylcellulose) (HPC) 102 % of control | dose: 12.5 mg/kg/injection, schedule: Q01DX009 (ip), vehicle: Klucel (hydroxypropylcellulose) (HPC) 100 % of control

NC(=S)Nc1ccc(C(=O)O)cc1
inactive: dose: 100.0 mg/kg/injection, schedule: Q04DX003 (ip), vehicle: saline with Tween-80 100 % of control | dose: 200.0 mg/kg/injection, schedule: Q04DX003 (ip), vehicle: saline with Tween-80 95 % of control | dose: 400.0 mg/kg/injection, schedule: Q04DX003 (ip), vehicle: saline with Tween-80 109 % of control

COc1cccc(C(Nc2ncccn2)c2cc3c(cc2O)OCO3)c1O (configuration not stated)
inactive: dose: 60.0 mg/kg/injection, schedule: Q01DX005 (ip), vehicle: saline with Tween-80 103 % of control | dose: 120.0 mg/kg/injection, schedule: Q01DX005 (ip), vehicle: saline with Tween-80 94 % of control | dose: 240.0 mg/kg/injection, schedule: Q01DX005 (ip), vehicle: saline with Tween-80 94 % of control

NC1C2CC3CC(C2)CC1(N)C3 (configuration not stated)
inactive: [4] 104 % of control | [5] 102 % of control | [1] 101 % of control and 96 % of control | [2] 99 % of control | [3] 99 % of control

CC1(c2ccccc2)C(=O)c2ccccc2N1O (configuration not stated)
inactive: dose: 50.0 mg/kg/injection, schedule: Q04DX002 (ip), vehicle: saline 98 % of control | dose: 100.0 mg/kg/injection, schedule: Q04DX002 (ip), vehicle: saline 100 % of control | dose: 200.0 mg/kg/injection, schedule: Q04DX002 (ip), vehicle: saline 101 % of control

Cc1c(N)ccc(O)c1C
inactive: [4] 120 % of control | [5] 105 % of control | [1] 100 % of control

NC(Cc1cnc[nH]1)C(=O)O (configuration not stated)
inactive: dose: 50.0 mg/kg/injection, schedule: Q01DX009 (ip), vehicle: saline 110 % of control | dose: 100.0 mg/kg/injection, schedule: Q01DX009 (ip), vehicle: saline 107 % of control | dose: 200.0 mg/kg/injection, schedule: Q01DX009 (ip), vehicle: saline 110 % of control

O=S1CCS(=O)C1c1ccccc1 (configuration not stated)
inactive: dose: 50.0 mg/kg/injection, schedule: Q01DX005 (ip), vehicle: other 99 % of control | dose: 100.0 mg/kg/injection, schedule: Q01DX005 (ip), vehicle: other 103 % of control

CCOC(=O)Cn1c(O)c(C2=c3cc(Br)ccc3=NC2=O)sc1=O
inactive: dose: 100.0 mg/kg/injection, schedule: Q01DX001 (ip), vehicle: Klucel (hydroxypropylcellulose) (HPC) 95 % of control | dose: 200.0 mg/kg/injection, schedule: Q01DX001 (ip), vehicle: Klucel (hydroxypropylcellulose) (HPC) 98 % of control | dose: 400.0 mg/kg/injection, schedule: Q01DX001 (ip), vehicle: Klucel (hydroxypropylcellulose) (HPC) 99 % of control

CC(N)C(=O)NC(Cc1ccccc1)C(=O)O (configuration not stated)
inactive: [6] 101 % of control | [7] 105 % of control | [8] 105 % of control
